Results on 25 compounds are retold here after EP4591884A1, “LIPID COMPOUND FOR NUCLEIC ACID DELIVERY, AND RELATED USE AND MEDICAMENT COMPRISING SAME” (Beijing Baishihekang Pharmaceutical Technology (Bsjpharma) …, priority 2022, dated 2024).

Test in all cases: in vitro small nucleic acid delivery by lipid-nucleic acid mixture, cell uptake by flow cytometry
Holding throughout (type): cell-based, human
Holding throughout (settings): lipid 1.25 ug/mL, fluorescently labeled PGY-ssRNA-26, final 100 nM, 9 h incubation, flow cytometry fluorescence
On the technique in general: Flow cytometry measures light scatter and fluorescence of single cells or particles in a stream.

One assay concerns 293T cells. Here is the method:
(§1) Culture the human pancreatic acinar epithelial cancer cell line HPAC, human large cell lung cancer cell line H460, and human embryonic kidney cell line HEK293T (purchased from the Cell Resource Center, Institute of Basic Medicine, Chinese Academy of Medical Sciences) used in the experiments in a 37°C, 5%CO2 incubator. Culture the HPAC cells in DMEM/F12 medium, the H460 cells in RPMI-1640 medium, and the 293T cells in DMEM medium containing 10% fetal bovine serum and 1% antibiotics (penicillin 100 U/mL & streptomycin […]). Culture the cells to the logarithmic growth phase with a cell density of 6 × 10^5/1 mL medium/well; divide the cells into 12-well plates (1 mL medium/well), and incubate at 37°C overnight (12 h), and then conduct subsequent experiments.
(§2) Add 5 µL of nucleic acid and 95 µL of DEPC-treated water to a 2 mL glass tube, mix homogeneously, add a certain amount of lipid monomer, mix thoroughly, heat in a 90°C water bath for 15 min, and then cool naturally to obtain a mixture of nucleic acid and lipid.
(§3) 3. Detection of cell uptake of nucleic acids delivered by lipids inside cells by means of flow cytometry (CFlow) • 1) Main experimental instruments and equipment: 10 cm cell culture dishes, 12-well cell culture plates, pipettes, transfer tubes, optical microscope, flow cytometer CytoFLEX instrument (purchased from Beckman, USA) • 2) Main experimental reagents: Model establishment and transfection: artificially synthesized lipid monomers and nucleic acids as shown in the table • 3) Culture the human pancreatic acinar epithelial cancer cell line HPAC cells, human large cell lung cancer cell line H460 cells, and human embryonic kidney cell line HEK293T cells used in the experiment to the logarithmic growth phase, and then divide them into 12-well plates at a cell density of 6×10^5/mL culture medium/well; incubate the 12-well plates at 37°C overnight (12 h), and then conduct subsequent experiments. • 4) The experimental groups are as follows: • a) Blank group: refers to untreated cells, and this group serves as a blank control group. • b) Free uptake group: directly add 5 µL of fluorescently labeled nucleic acid solution (stock concentration 20 µM), and this group serves as the negative control group. • c) Lipid-nucleic acid mixture treatment group: add the mixture of lipids and fluorescently labeled nucleic acids prepared in step 2 to the cells, and mix homogeneously. The final concentration of nucleic acids is 100 nM. • 5) After incubating with cells for 9 h, wash the cells three times with PBS, resuspend the cells with PBS (self-prepared), and use a flow cytometer CytoFLEX instrument (purchased from Beckman, USA) to detect the fluorescence intensity of the cells in the sample wells.

A further assay deals with H460 cells. The procedure: as §1, §2, §3
In another assay the test system is HPAC cells. The procedure: as §1, §2, §3

Take `CCCCCCCCCCCCCCCCCCC[C@@H](O)[C@@H](N)CO` [Sphingosine (d22:0), (2S,3R)-2-aminodocosane-1,3-diol]: the “Lipid delivery group (1.25 ug/mL)” value worked out at 22.99% in the assay on 293T cells, 24.32% with H460 cells and 39.08% in the assay with HPAC cells.
As to `CCCCCCCCCCCCCCCCCCCC[C@@H](O)[C@@H](N)CO` [Sphingosine (d23:0), (2S,3R)-2-aminotricosane-1,3-diol], the “Lipid delivery group (1.25 ug/mL)” value was 98.16% with 293T cells, 98.65% with H460 cells and 78.91% in the assay on HPAC cells.
For `CCCCCCCCCCCCCCCCCC/C=C/[C@@H](O)[C@@H](N)CO` [Sphingosine (d23:1), (2S,3R,E)-2-aminotricos-4-ene-1,3-diol], in that order: 34.51%, 44.11% and 7.93%.
Turning to `CCCCCCCCCCCCCCCCCCCCC[C@@H](O)[C@@H](N)CO` [Sphingosine (d24:0), (2S,3R)-2-aminotetracosane-1,3-diol], the “Lipid delivery group (1.25 ug/mL)” value with 293T cells came to 96.77%; with H460 cells it was 98.13%; with HPAC cells, 96.61%.
For `CCCCCCCCCCCCCCCCCCC/C=C/[C@@H](O)[C@@H](N)CO` [Sphingosine (d24:1), (2S,3R,E)-2-aminotetracos-4-ene-1,3-diol], in that order: 63.97%, 79.66% and 16.65%.
On to `CCCCCCCCCCCCCCCCCCCCCC[C@@H](O)[C@@H](N)CO` [Sphingosine (d25:0), (2S,3R)-2-aminopentacosane-1,3-diol], for which the results for the “Lipid delivery group (1.25 ug/mL)” value in the assay with 293T cells, in the assay with H460 cells and with HPAC cells were 97.76%, 99.26% and 96.17%, respectively.
In the case of `CCCCCCCCCCCCCCCCCCCC/C=C/[C@@H](O)[C@@H](N)CO` [Sphingosine (d25:1), (2S,3R,E)-2-aminopentacos-4-ene-1,3-diol], the “Lipid delivery group (1.25 ug/mL)” value with 293T cells is 78.12%; with H460 cells, 78.43%; in the assay on HPAC cells, 89.70%.
For `CCCCCCCCCCCCCCCCCCCCCCC[C@@H](O)[C@@H](N)CO` [Sphingosine (d26:0), (2S,3R)-2-aminohexacosane-1,3-diol], the “Lipid delivery group (1.25 ug/mL)” value is reported as 95.55% with 293T cells, 95.2% in the assay on H460 cells and 97.75% in the assay on HPAC cells.
On the same counts, the results for `CCCCCCCCCCCCCCCCCCCCC/C=C/[C@@H](O)[C@@H](N)CO` [Sphingosine (d26:1), (2S,3R,E)-2-aminohexacos-4-ene-1,3-diol] are 87.97%, 85.87% and 96.03%.
`CCCCCCCCCCCCCCCCCCCCCCCC[C@@H](O)[C@@H](N)CO` [Sphingosine (d27:0), (2S,3R)-2-aminoheptacosane-1,3-diol]: the results for the “Lipid delivery group (1.25 ug/mL)” value in the assay with 293T cells, with H460 cells and in the assay with HPAC cells were 91.06%, 97.57% and 97.35%, respectively.
On the same counts, the results for `CCCCCCCCCCCCCCCCCCCCCC/C=C/[C@@H](O)[C@@H](N)CO` [Sphingosine (d27:1), (2S,3R,E)-2-aminoheptacos-4-ene-1,3-diol] are 92.77%, 95.74% and 99.42%.
As for `CCCCCCCCCCCCCCCCCCCCCCCCC[C@@H](O)[C@@H](N)CO` [Sphingosine (d28:0), (2S,3R)-2-aminooctacosane-1,3-diol], the “Lipid delivery group (1.25 ug/mL)” value is 96.93% with 293T cells, 98.52% in the assay with H460 cells and 94.40% in the assay on HPAC cells.
For the compound `CCCCCCCCCCCCCCCCCCCCCCC/C=C/[C@@H](O)[C@@H](N)CO` [Sphingosine (d28:1), (2S,3R,E)-2-aminooctacos-4-ene-1,3-diol], the “Lipid delivery group (1.25 ug/mL)” value is listed as 86.5% with 293T cells, 84.15% in the assay with H460 cells and 96.66% with HPAC cells.
Regarding `CCCCCCCCCCCCCCCCCCCCCCCCCC[C@@H](O)[C@@H](N)CO` [Sphingosine (d29:0), (2S,3R)-2-aminononacosane-1,3-diol], the “Lipid delivery group (1.25 ug/mL)” value in the assay with 293T cells stood at 72.18%; with H460 cells it was 65.81%; in the assay on HPAC cells it was 83.57%.
For `CCCCCCCCCCCCCCCCCCCCCCCC/C=C/[C@@H](O)[C@@H](N)CO` [Sphingosine (d29:1), (2S,3R,E)-2-aminononacos-4-ene-1,3-diol], the “Lipid delivery group (1.25 ug/mL)” value was 32.74% with 293T cells, 62.37% in the assay on H460 cells and 23.36% in the assay on HPAC cells.
Consider `CCCCCCCCCCCCCCCCCCCCCCCCCCC[C@@H](O)[C@@H](N)CO` [Sphingosine (d30:0), (2S,3R)-2-aminotriacontane-1,3-diol], for which the “Lipid delivery group (1.25 ug/mL)” value was determined as 83.38% in the assay with 293T cells, 78.84% with H460 cells and 93.63% with HPAC cells.
Regarding `CCCCCCCCCCCCCCCCCCCCCCCCC/C=C/[C@@H](O)[C@@H](N)CO` [Sphingosine (d30:1), (2S,3R,E)-2-aminotriacont-4-ene-1,3-diol], the figures for the “Lipid delivery group (1.25 ug/mL)” value in the assay with 293T cells, in the assay on H460 cells and with HPAC cells were 95.79%, 54.83% and 69.34%, respectively.
For the compound `CCCCCCCCCCCCCCCCCCCCCCCCCCCC[C@@H](O)[C@@H](N)CO` [Sphingosine (d31:0), (2S,3R)-2-aminohentriacontane-1,3-diol], the “Lipid delivery group (1.25 ug/mL)” value is 97.4% with 293T cells, 68.16% with H460 cells and 70.5% in the assay with HPAC cells.
For `CCCCCCCCCCCCCCCCCCCCCCCCCC/C=C/[C@@H](O)[C@@H](N)CO` [Sphingosine (d31:1), (2S,3R,E)-2-aminohentriacont-4-ene-1,3-diol], in that order: 75.77%, 82.66% and 60.61%.
On to `CCCCCCCCCCCCCCCCCCCCCCCCCCCCC[C@@H](O)[C@@H](N)CO` [Sphingosine (d32:0), (2S,3R)-2-aminodotriacontane-1,3-diol], for which the “Lipid delivery group (1.25 ug/mL)” value with 293T cells came out at 34.02%; in the assay with H460 cells, 46.19%; in the assay on HPAC cells, 70.16%.
Consider `CCCCCCCCCCCCCCCCCCCCCCCCCCC/C=C/[C@@H](O)[C@@H](N)CO` [Sphingosine (d32:1), (2S,3R,E)-2-aminodotriacont-4-ene-1,3-diol], for which the “Lipid delivery group (1.25 ug/mL)” value in the assay on 293T cells is 86.77%; in the assay with H460 cells, 62.18%; in the assay on HPAC cells, 87.38%.
For the compound `CCCCCCCCCCCCCCCCCCCCCCCCCCCCCC[C@@H](O)[C@@H](N)CO` [Sphingosine (d33:0), (2S,3R)-2-aminotritriacontane-1,3-diol], the “Lipid delivery group (1.25 ug/mL)” value is given as 61.39% in the assay on 293T cells, 72.21% in the assay on H460 cells and 2.48% in the assay with HPAC cells.
As for `CCCCCCCCCCCCCCCCCCCCCCCCCCCC/C=C/[C@@H](O)[C@@H](N)CO` [Sphingosine (d33:1), (2S,3R,E)-2-aminotritriacont-4-ene-1,3-diol], the figures for the “Lipid delivery group (1.25 ug/mL)” value with 293T cells, in the assay with H460 cells and in the assay with HPAC cells were 40.07%, 67.01% and 45.88%, respectively.
For `CCCCCCCCCCCCCCCCCCCCCCCCCCCCCCC[C@@H](O)[C@@H](N)CO` [Sphingosine (d34:0), (2S,3R)-2-aminotetratriacontane-1,3-diol], in that order: 5%, 24.56% and 0.55%.
Regarding `CCCCCCCCCCCCCCCCCCCCCCCCCCCCC/C=C/[C@@H](O)[C@@H](N)CO` [Sphingosine (d34:1), (2S,3R,E)-2-aminotetratriacont-4-ene-1,3-diol], the “Lipid delivery group (1.25 ug/mL)” value in the assay with 293T cells is on record as 38.31%; in the assay with H460 cells, 66.64%; with HPAC cells it was 2.95%.
